PMC8511024, “In silico and multi-spectroscopic analyses on the interaction of 5-amino-8-hydroxyquinoline and bovine serum albumin as a potential anticancer agent” (Scientific Reports, 2021)

Columns and labels:
[1] = biological target: T1, bovine serum albumin (BSA) (Bos taurus, UniProt P02769); assay: Fluorescence quenching of BSA (Stern–Volmer, Hill and Van't Hoff analyses); type: binding; details: for Stern–Volmer constant Ksv: BSA 4 µM, 5A8HQ 0–170 µM; for Quenching rate constant kq: lifetime of 1 × 10^−8 s assumed
T1 construct: bovine serum albumin (BSA), a representative of serum protein; purchased Sigma-Aldrich Co. LLC
T1 sequence (P02769 25-607): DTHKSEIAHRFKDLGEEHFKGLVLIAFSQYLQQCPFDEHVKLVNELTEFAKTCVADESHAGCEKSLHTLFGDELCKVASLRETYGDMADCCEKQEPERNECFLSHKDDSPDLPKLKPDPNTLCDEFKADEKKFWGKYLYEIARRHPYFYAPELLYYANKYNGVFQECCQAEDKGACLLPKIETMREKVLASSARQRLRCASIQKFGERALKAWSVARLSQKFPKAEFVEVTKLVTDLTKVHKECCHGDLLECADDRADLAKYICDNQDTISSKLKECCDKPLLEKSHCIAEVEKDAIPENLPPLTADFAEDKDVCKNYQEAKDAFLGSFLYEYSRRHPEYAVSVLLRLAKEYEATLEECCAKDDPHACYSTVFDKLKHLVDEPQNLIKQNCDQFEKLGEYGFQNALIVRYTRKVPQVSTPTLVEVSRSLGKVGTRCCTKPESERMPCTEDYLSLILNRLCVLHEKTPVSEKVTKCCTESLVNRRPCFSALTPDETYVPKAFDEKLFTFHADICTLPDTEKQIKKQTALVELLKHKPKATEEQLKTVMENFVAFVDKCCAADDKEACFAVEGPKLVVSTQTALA
Source text: Quenching of intrinsic protein fluorescence can be triggered by either static or dynamic process. In some circumstances, both processes can concurrently provoke fluorescence quenching known as a combined quenching mechanism. Static and dynamic quenching processes obey a linear model of the Stern–Volmer equation (Eq. 1), which can be approximately differentiated by scrutinizing the Stern–Volmer constant ( Ksv ) at different temperatures. Positive relationship of Ksv with temperature indicates dynamic quenching process, while negative association infers static process. Dynamic quenching occurs via collisional encountering among protein and ligand. Increasing temperature enlarges ligand motion to hit protein and quench its fluorescence at the excited state, resulting in increasing Ksv . Static quenching is contrary to the dynamic one. It is arisen by the complexation of protein and ligand, in which rising temperature tends to disfavor binding event and lessen Ksv value. Combined quenching process influences both ground-state and excited state of protein fluorescence, which usually deviates the linearity of classical Stern–Volmer plot to downward or upward curvature[42].1 F0/F=1+KsvQ=1+kqτ0Q F0 and F are the steady-state fluorescence intensities of fluorophore (BSA) in the absence and the presence of quencher (5A8HQ), respectively. Q refers to the molar concentration of quencher. Ksv is Stern–Volmer constant. kq and τ0 are biomolecular quenching rate constant and fluorescence lifetime of the fluorophore without quencher, respectively.
Fluorescence quenching and thermodynamic analyses were performed at three different temperatures including 310, 300, and 290 K to imitate physiological, ambient, and hypothermic conditions, respectively. The 5A8HQ quenched fluorescence emission of BSA in a concentration dependent manner and almost reached saturation at 5A8HQ concentration above 130 µM (Fig. 3A). The Stern–Volmer plots behaved in a positive linear trend, indicating a single process of BSA fluorescence quenching by 5A8HQ (Fig. 3B).
In addition, quenching process could be roughly verified by determining the quenching rate constant of the interaction (Eq. (1)), in which the quenching rate constant at 2 × 10^10 M^−1 s^−1 is usually employed as a maximum cutoff for diffusion collision quenching of various quenchers. The fluorescence lifetime of excited state can be measured using a lifetime spectrofluorometer. However, in case of inaccessible to such instrument like this study, a lifetime of 1 × 10^−8 s is generally assumed for the calculation of quenching rate constant. Accordingly, the quenching rate constant of BSA‒5A8HQ interaction at each temperature was approximated to be 10^12 M^−1 s^−1 (Table 2), which was 100 times higher than that of the typical collisional quenching process (2 × 10^10 M^−1 s^−1). […] Thereby, the binding constants of complexation were elucidated using Hill’s plot.
Various non-covalent interactions play an important role in the binding of ligand to protein including hydrogen bonding, van der Waals force, electrostatic, and hydrophobic interactions. Therefore, complex formation between BSA and 5A8HQ was further explored to determine principal interaction forces and binding affinity. Nonlinear Hill’s equation (Eq. (2)) was applied on the fluorescence dataset of BSA–5A8HQ complex to obtain binding constant ( KA ) and Hill coefficient constant ( n ), which fundamentally infer affinity and cooperativity of the binding, respectively (Fig. 4A).
2 F0-F/F0=KA[Q]^n/1+KA[Q]^n F0 , F , and Q stand for the same annotations as the aforementioned in Eq. (1). Hill’s equation can be transformed to linear form as an expression of Eq. (3), which is often applied in many studies.3 logF0-F/F=logKA+nlogQ KA is similar to KSV in terms of binding constant, but in different aspects of interaction behavior. KA implies a degree of affinity at static process, while KSV rather reflects dynamic behavior among protein and ligand[16]. […]

[2] = biological target: T1, bovine serum albumin (BSA); assay: Site probe competitive (site marker displacement) analysis; type: binding; details: 310 K; for Kd: Binding constant KA, BSA 4 µM
Source text: Serum albumin can bind and transport various molecules since its structure assembles many binding pockets. Site I and site II are well-defined binding pockets located in hydrophobic regions of subdomains IIA and IIIA, respectively, which primarily bind aromatic and heterocyclic compounds. Site III is found on the hydrophilic region of subdomain IB to serve as a binding pocket for numerous compounds e.g., bilirubin, hemin, and sulfonamide derivatives. In addition, seven binding sites for fatty acids are discovered on subdomains IB, IIIA, and IIIB, and at the interface between subdomains. Herein, site-probe displacement study was employed to determine the preferred binding site on BSA of 5A8HQ using warfarin, ibuprofen, and digitoxin as competitive probes for sites I, II, and III, respectively. Binding constant of 5A8HQ to BSA was determined during equilibration with each site marker (Table 4).
BSA (4 µM) was equilibrated with various concentrations of 5A8HQ (0, 5, 10, 30, 50, 70, 90, 110, 130, 150, and 170 µM) for 10 min at the different temperatures (290, 300, and 310 K). Later, fluorescence spectra in a range of 285–450 nm were measured with 280 nm excitation using a temperature-controlled QuantaMaster™ 40 spectrofluorometer (Photon Technology International, Inc., Ontario, Canada). Site marker displacement analyses were achieved as the abovementioned, but an equimolar concentration of […] was added to BSA prior challenging with various 5A8HQ concentrations at physiological temperature (310 K). Inner filter effect (IFE) becaused by the excitation and emission beam attenuations by sample might produce nonlinearity artifact on the measured fluorescent signal, so IFE was routinely eradicated by the following equation[55].9 Fcor=Fobs×e^(A^ex-A^em)/2 where Fobs and Fcor are the measured and corrected fluorescence intensities, respectively. A^ex and A^em are the absorbance values at excitation and emission wavelengths being measured. The IFE corrected fluorescence signals were served for estimations of all pertinent parameters, such as quenching constant, binding constant, and thermodynamics parameters, if not otherwise stated.

[3] = biological target: T1, bovine serum albumin (BSA); assay: Fluorescence resonance energy transfer (FRET) between BSA and 5A8HQ; type: binding
Source text: Besides microenvironmental changes around its fluorophore, quenching of BSA fluorescence may also be provoked by fluorescence resonance energy transfer (FRET) process, in which the excited Trp and/or Tyr transfer their energy to the quencher (5A8HQ) via dipole–dipole interaction. However, the FRET phenomenon is strictly dependent on the degree of overlapping between emission spectrum of fluorophore and absorption spectrum of quencher. Also, fluorophore and quencher must be in proximity (2–8 nm) to each other and their transition dipoles must align in parallel orientation. FRET is a useful method to study molecular distance among molecules that can provide guidance on whether ligand binds with protein at proximity to the Trp fluorophore. The distance ( r ) between quencher and fluorophore can be calculated by Eq. (6).6 E=1-F/F0=R06/[…] E stands for the efficiency of fluorescence resonance energy transfer. F0 and F are fluorescence intensities of BSA in the absence and presence of 5A8HQ, respectively. R0 is the Förster distance, where half of the excitation energy is transferred to the acceptor. R0 can be obtained by Eqs. (7) and (8) as follows:7 R0=0.211k^2∅DJ/n^4^1/6 8 J=∫0∞Fλελλ^4dλ/∫0∞Fλdλ where k^2 is the orientation factor of the dipoles, which can range between 0 and 4. ∅D and n denote the fluorescence quantum yield of donor without quencher and the refractive index of the medium, respectively. J is an overlapping between the donor fluorescence spectrum and the quencher absorption spectrum. Fλ and ελ mean fluorescence intensity of the donor and molar absorption coefficient of the acceptor at the λ wavelength.
R0 was determined on the assumption that ∅D and n were 0.15 and 1.336, respectively. However, Förster distance depends greatly on orientation between donor’s and acceptor’s dipoles. k^2 value of 0.667 is generally assumed for dynamic dipole orientation, where dipoles are randomly oriented because of their rotational diffusion. […] Based on these two assumptions of dipole orientation, R0 were calculated to be 2.37 and 2.50 nm, which subsequently yielded the Trp to 5A8HQ distances ( r ) at 3.01 and 3.18 nm for static and dynamic dipole orientations, respectively.

[4] = biological target: T1, bovine serum albumin (BSA); assay: Circular dichroism spectroscopy of BSA secondary structure; details: BSA 4 µM, 310 K, without 5A8HQ 66.17%
Source text: Structural alteration of the BSA when interacting with 5A8HQ was further elucidated by a CD spectroscopy, which is a useful technique for analyzing the secondary structure of macromolecules. BSA structure is dominantly composed of α-helix (~ 67%), represented by two prominent negative bands at 208 (π–π* transition) and 222 (n–π* transition) nm, and a positive band at 192 nm (π–π* transition)[54]. […] This finding is in well agreement with other observations, especially thermodynamic parameters, molecular docking, and molecular dynamics simulations, which implied that BSA tends to transform its native conformation for ground-state complexation with 5A8HQ. Hydrogen bonding and electrostatic networks of the complex might reallocate hydrogen bonding of α-helix structure as indicated by a slight decrease in CD spectral bands.
CD measurement was performed to determine a secondary conformational alteration of BSA under 5A8HQ exposure using a Jasco J-815 spectropolarimeter (JASCO International Co. Ltd., Tokyo, Japan). BSA (4 µM) was incubated with 5A8HQ (5 and 50 µM) in a 1 mm path length cuvette at 310 K under constantly flushed with nitrogen. The spectra were recorded in a range of 200–260 nm at an interval of 1 nm with a 60 nm/min scanning rate.

[5] = read-out: Antioxidant activity IC50; cited from earlier work
BSA = system: BSA; design: method as in PMID 30865872; details: cited from earlier work

SMILES: Nc1ccc(O)c2ncccc12 [5A8HQ, 5-Amino-8-hydroxyquinoline]
- Hill coefficient constant n ([1]; 290 K): 1 ± 0
- Stern–Volmer constant Ksv ([1]; 290 K): 2.773 ± 0.071 × 10^4 M^−1
- Quenching rate constant kq ([1]; 290 K): 2.773 ± 0.071 × 10^12 (M^−1 s^−1)
- Hill coefficient constant n ([1]; 300 K): 1 ± 0
- Stern–Volmer constant Ksv ([1]; 300 K): 1.303 ± 0.043 × 10^4 M^−1
- Quenching rate constant kq ([1]; 300 K): 1.303 ± 0.043 × 10^12 (M^−1 s^−1)
- Hill coefficient constant n ([1]; 310 K): 1 ± 0
- Stern–Volmer constant Ksv ([1]; 310 K): 1.173 ± 0.032 × 10^4 M^−1
- Quenching rate constant kq ([1]; 310 K): 1.173 ± 0.032 × 10^12 (M^−1 s^−1)
- Kd ([1]; Binding constant KA, 290 K, Hill's equation): 40 µM
- Kd ([1]; Binding constant KA, 300 K, Hill's equation): 58.6 µM
- Kd ([1]; Binding constant KA, 310 K, Hill's equation): 83.7 µM
- Kd ([1]; Binding constant of BSA‒5A8HQ interaction (order of magnitude), 290–310 K): 100 µM
- Quenching rate constant (order of magnitude) ([1]; at each temperature, lifetime 1 × 10^−8 s assumed): ~10^12 M^−1 s^−1
- Kd ([2]; with digitoxin (site III marker) 4 µM): 47.6 µM
- Kd ([2]; with ibuprofen (site II marker) 4 µM): 47.8 µM
- Kd ([2]; with warfarin (site I marker) 4 µM): 47.1 µM
- Kd ([2]; without site marker): 83.7 µM
- Number of binding site n ([2]; with digitoxin 4 µM): 1 ± 0
- Number of binding site n ([2]; with ibuprofen 4 µM): 1 ± 0
- Number of binding site n ([2]; with warfarin 4 µM): 1 ± 0
- Number of binding site n ([2]; without site marker): 1 ± 0
- Integral spectral overlap J ([3]; BSA 4 µM fluorescence, 5A8HQ 5 µM absorption): 9.55 × 10^13 M^−1 cm^−1 nm^4
- Trp to 5A8HQ distance r ([3]; dynamic dipole orientation): 3.18 nm
- Förster distance R0 ([3]; dynamic dipole orientation, k^2 0.667): 2.50 nm
- Trp to 5A8HQ distance r ([3]; static dipole orientation): 3.01 nm
- Förster distance R0 ([3]; static dipole orientation, k^2 0.475): 2.37 nm
- α-helix content of BSA ([4]; 5A8HQ 5 µM): 64.96%
- α-helix content of BSA ([4]; 5A8HQ 50 µM): 63.65%
- IC50 [5]: 8.71 µM

SMILES: Oc1c(I)cc(Cl)c2cccnc12 [clioquinol, 5-chloro-7-iodo-8-hydroxyquinoline]
- Binding constant KA (BSA): 10^8 M^−1

SMILES: Cc1c(C)c2c(c(C)c1O)CC[C@@](C)(CCC[C@H](C)CCC[C@H](C)CCCC(C)C)O2 [α-tocopherol, reference compound]
- IC50 [5]: 13.5 µM
